According to article PMC3097170 (The Journal of pharmacology and experimental therapeutics, 2011):
Several values for one entry are separate records, joined by “and”; a condition that tells them apart may be missing. Equal values may be shown once. Where a name gives a salt, the structure may show the parent alone. Read-outs that look alike come from different tables or passages of the source.

Assays:
MOR [1] = molecular target: T1, MOR (Mus musculus, UniProt P42866)
DOR [2] = molecular target: T2, DOR (Mus musculus, UniProt P32300)
DOR/MOR [3] = molecular target: T3, DOR/MOR (Mus musculus, UniProt P32300+P42866)
DOR [4] = molecular target: T2, DOR; remark: listed apart in the source
MOR [5] = molecular target: T1, MOR; remark: listed apart in the source
MOR homomers = MOR homomers (Mus musculus, UniProt P42866); assay type: cell-based, murine; conditions: DOR/MOR co-expressing cells
DOR homomers = DOR homomers (Mus musculus, UniProt P32300); assay type: cell-based, murine
DOR/MOR heteromers = DOR/MOR heteromers (Mus musculus, UniProt P32300+P42866); assay type: cell-based, murine
DOR/MOR [6] = molecular target: T3, DOR/MOR; assay: cell-based
DOR [7] = molecular target: T2, DOR; assay: cell-based; conditions: Log IC50
DOR [8] = conditions: cited from earlier work
MOR [9] = conditions: cited from earlier work

T2 sequence (P32300 whole entry): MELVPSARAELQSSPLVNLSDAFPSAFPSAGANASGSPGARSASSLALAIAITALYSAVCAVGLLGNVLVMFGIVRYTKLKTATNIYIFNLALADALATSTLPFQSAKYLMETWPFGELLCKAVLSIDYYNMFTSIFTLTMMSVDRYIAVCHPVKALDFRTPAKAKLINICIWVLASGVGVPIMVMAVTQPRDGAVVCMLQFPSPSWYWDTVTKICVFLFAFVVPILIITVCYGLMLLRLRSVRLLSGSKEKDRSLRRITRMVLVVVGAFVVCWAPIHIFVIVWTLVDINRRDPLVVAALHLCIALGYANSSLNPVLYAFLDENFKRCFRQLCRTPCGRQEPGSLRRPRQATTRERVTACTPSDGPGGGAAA
T3 sequence (P42866 whole entry): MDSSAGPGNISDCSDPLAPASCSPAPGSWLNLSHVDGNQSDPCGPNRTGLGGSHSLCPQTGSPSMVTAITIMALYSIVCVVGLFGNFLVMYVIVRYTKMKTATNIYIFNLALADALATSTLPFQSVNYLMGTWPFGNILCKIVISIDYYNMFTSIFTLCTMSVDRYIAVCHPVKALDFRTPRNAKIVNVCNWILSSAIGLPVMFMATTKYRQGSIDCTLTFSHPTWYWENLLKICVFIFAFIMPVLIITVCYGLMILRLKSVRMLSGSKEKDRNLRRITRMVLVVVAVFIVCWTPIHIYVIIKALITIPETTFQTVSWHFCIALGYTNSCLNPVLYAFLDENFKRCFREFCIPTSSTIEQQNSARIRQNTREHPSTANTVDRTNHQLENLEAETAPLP
T3 sequence (P32300 whole entry): as the sequence (P32300 whole entry) above
T1 sequence (P42866 whole entry): as the sequence (P42866 whole entry) above
Sequence of DOR/MOR heteromers (P42866 whole entry): as above
Sequence of DOR/MOR heteromers (P32300 whole entry): as the sequence (P32300 whole entry) above
Sequence of MOR homomers (P42866 whole entry): as the sequence (P42866 whole entry) above
Sequence of DOR homomers (P32300 whole entry): as the sequence (P32300 whole entry) above

SMILES: C[C@@H](NC(=O)[C@@H](N)Cc1ccc(O)cc1)C(=O)NCC(=O)N(C)[C@@H](Cc1ccccc1)C(=O)NCCO [DAMGO, [D-Ala2, NMe-Phe4, Gly-ol5]-enkephalin]
- Emax (RFU) (MOR [1]): 735 ± 51 RFU
- agonist-induced endocytosis of DOR (DOR [2]): not endocytosed
- Emax (RFU) (DOR/MOR [3]): 956 ± 56 RFU
- Emax (RFU) (DOR [4]): 582 ± 55 RFU
- agonist-induced endocytosis of MOR (MOR [5]; 1 μM agonist, 30 minutes, cells expressing MOR alone): endocytosed
- agonist-induced endocytosis of MOR homomers (MOR homomers; 1 μM, 30 minutes): promoted endocytosis
- agonist-induced endocytosis of DOR homomers (DOR homomers): but not DOR homomers
- agonist-induced endocytosis of DOR/MOR heteromers (DOR/MOR heteromers): promoted endocytosis

SMILES: Oc1ccc2c3c1O[C@H]1c4[nH]c5ccccc5c4C[C@@]4(O)[C@@H](C2)N(CC2CC2)CC[C@]314 [NTI, Naltrindole hydrochloride]
- IC50 (DOR/MOR [6]): 126 nM
- IC50 (DOR [7]): 63.1 nM and 251 nM
- Ki (DOR [8]; read-out: Ki for DOR, reference not given): 0.02 nM
- % of maximal inhibition (DOR/MOR [3]): 79 ± 6% and 48 ± 6%
- Log IC50 (DOR/MOR [3]): −6.9 ± 0.1
- % of maximal inhibition (DOR [4]): 81 ± 3% and 94 ± 1%
- Ki (MOR [9]; read-out: Ki for MOR, reference not given): 64 nM
- inhibition of methadone- and DAMGO-induced endocytosis of DOR/MOR heteromers (DOR/MOR heteromers): significantly and selectively inhibited

SMILES: Oc1ccc2c3c1O[C@H]1c4oc5ccccc5c4C[C@@]4(O)[C@@H](C2)N(CC2CC2)CC[C@]314 [NTB, naltriben mesylate]
- IC50 (DOR/MOR [6]): 251 nM
- inhibition of DAMGO-mediated signaling (MOR [1]): 52 ± 4%
- inhibition of methadone-mediated signaling (MOR [1]): 63 ± 10%
- IC50 (DOR [7]): 158 nM and 126 nM
- inhibition of DOR endocytosis in response to DPDPE (DOR [2]): did block endocytosis
- fold higher affinity for DOR over MOR (DOR [8]; DOR over MOR, ref Raynor et al., 1994, Kim et al., 2001): > 100 fold
- Ki (DOR [8]; read-out: Ki for DOR, ref Raynor et al., 1994, Kim et al., 2001): 0.013 nM
- % of maximal inhibition (DOR/MOR [3]): 34 ±7 ^### % and 31 ± 5 %
- block of DPDPE signaling (DOR/MOR [3]): effectively blocked signaling
- % of maximal inhibition (DOR [4]): 87 ± 2% and 87 ± 12%
- block of DPDPE signaling (DOR [4]): effectively blocked signaling
- inhibition of MOR endocytosis in cells expressing only MOR (MOR [5]): did not block endocytosis
- inhibition of methadone- and DAMGO-induced endocytosis of MOR homomers (MOR homomers; NTB 0.05 μM to 1 μM, 20 minutes): inhibited by the highest concentration
- Ki (MOR [9]; read-out: Ki for MOR, ref Raynor et al., 1994, Kim et al., 2001): 12 nM
- inhibition of methadone- and DAMGO-induced endocytosis of DOR/MOR heteromers (DOR/MOR heteromers): significantly inhibited
